# Test results published in patent US7763584B2, “Hepatitis C virus inhibitors” (priority 2006, dated 2010).
# Test system: HCV replicon in HUH-7 cells
# Test: HCV replicon FRET assay (EC50 confirmed in replicon luciferase reporter assay)
# Format: cell-based
# Details: Hepatitis C virus, Huh-7, 96 h
# From the text: An HCV replicon whole cell system was established as described by Lohmann V, Korner F, Koch J, Herian U, Theilmann L, Bartenschlager R., Science 285(5424): 110-3 (1999). This system enabled us to evaluate the effects of our HCV Protease compounds on HCV RNA replication. Briefly, using the HCV strain 1b sequence described in the Lohmann paper (Assession number: AJ238799), an HCV cDNA was synthesized by Operon Technologies, Inc. (Alameda, Calif.), and the full-length replicon was then assembled in plasmid pGem9zf(+) (Promega, Madison, Wis.) using standard molecular biology techniques. […]
# The HCV replicon FRET assay was developed to monitor the inhibitory effects of compounds described in the disclosure on HCV viral replication. […] After 4 days, cells were first assessed for cytotoxicity using alamar Blue (Trek Diagnotstic Systems) for a CC50 reading. The toxicity of compound (CC50) was determined by adding 1/10th volume of alamar Blue to the media incubating the cells. After 4 h, the fluorescence signal from each well was read, with an excitation wavelength at 530 nm and an emission wavelength of 580 nm, using the Cytofluor Series 4000 (Perspective Biosystems). […]
structure (smiles),measurement,value
"CO[C@@]1(c2ccc(-c3ccccc3)cc2)C[C@H]2C(=O)N[C@]3(C(=O)NS(=O)(=O)C4CC4)C[C@H]3/C=C\CCCCC[C@H](NC(=O)OC(C)(C)C)C(=O)N2C1 [Compound 1, tert-butyl (2R,6S,13aS,14aR,16aS,Z)-2-(biphenyl-4-yl)-14a-(cyclopropylsulfonylcarbamoyl)-2-methoxy-5,16-dioxo-1,2,3,5,6,7,10,11,13a,14,14a,15,16,16a-hexadecahydrocyclopropa[e]pyrrolo[1,2-a][1,4]diazacyclopentadecin-6-ylcarbamate]",EC50,5 nM
